# Assay: 28-day once-daily oral gavage toxicity study with 14-day recovery (body weight, food consumption, clinical and anatomic pathology)
# Type: in vivo
# Conditions: for Decrease of group mean food consumption compared to Group 1 controls: Days 21 to 28
# Experimental: J147 or vehicle was administered once daily to Sprague-Dawley rats via oral gavage for 28 consecutive days at a daily dose of 0, 30, 100 or 300 mg/kg. J174 was prepared in a vehicle formulation comprising 5% ethanol, 5% DMSO and 90% corn oil (v/v/v). Certified rodent diet and water was available ad libitum. Groups 1-4 contained 10 animals/sex/group. Groups 1 (control) and 4 (high dose) also included an additional 5 animals/sex/group for use as recovery animals. The recovery animals were maintained on study for a 14-day postdosing recovery period. Animals in Groups 1-4 were monitored for morbidity and mortality, clinical signs, detailed clinical observations, body weight, food consumption, ophthalmologic parameters, neurobehavioral assessment consisting of a Functional Observational Battery (FOB) and a motor activity test, hematology, coagulation, serum chemistry, and urinalysis parameters. Postmortem assessment included necropsy, measurement of selected organ weights, and microscopic evaluation of a standard set of tissues. Plasma samples for bioanalysis were collected on Days 1 and 28 from satellite toxicokinetic animals in Groups 5 through 8. Animals in these groups were euthanized following the last blood sampling and carcasses were discarded without examination. The study protocol is shown below in Table 1.
# [1] = Group 2F: female rats, 30 mg/kg/day
# [2] = Group 2M: male rats, 30 mg/kg/day
# [3] = Group 3F: female rats, 100 mg/kg/day
# [4] = Group 3M: male rats, 100 mg/kg/day
# [5] = Group 4F: female rats, 300 mg/kg/day
# [6] = Group 4M: male rats, 300 mg/kg/day
# [7] = female rats, 30 mg/kg/day, Day 7 → 14
# [8] = female rats, 30 mg/kg/day, Day 14 → 21
# [9] = female rats, 30 mg/kg/day, Day 21 → 28
# [10] = female rats, 30 mg/kg/day, Day −1 → 7
# [11] = female rats, 100 mg/kg/day, Day 7 → 14
# [12] = female rats, 100 mg/kg/day, Day 14 → 21
# [13] = female rats, 100 mg/kg/day, Day 21 → 28
# [14] = female rats, 100 mg/kg/day, Day 28
# [15] = female rats, 100 mg/kg/day, Day −1 → 7
# [16] = female rats, 300 mg/kg/day, Day 7 → 14
# [17] = female rats, 300 mg/kg/day, Day 14 → 21
# [18] = female rats, 300 mg/kg/day, Day 21 → 28
# [19] = female rats, 300 mg/kg/day, Day 28
# [20] = female rats, 300 mg/kg/day, Day −1 → 7
# [21] = male rats, 30 mg/kg/day, Day 7 → 14
structure (smiles),measurement,setting,value
COc1cccc(/C=N/N(C(=O)C(F)(F)F)c2ccc(C)cc2C)c1 [J147],Terminal Body Weight % Diff from Control,[1],−2.4%
same,Terminal Body Weight (mean),[1],238.10 g
same,Terminal Body Weight % Diff from Control,[2],+1.4%
same,Terminal Body Weight (mean),[2],443.50 g
same,Terminal Body Weight % Diff from Control,[3],−7.6%
same,Terminal Body Weight (mean),[3],225.43 g
same,Terminal Body Weight % Diff from Control,[4],−5.69%
same,Terminal Body Weight (mean),[4],412.50 g
same,Terminal Body Weight % Diff from Control,[5],−14.23%
same,Terminal Body Weight (mean),[5],209.24 g
same,Terminal Body Weight % Diff from Control,[6],−17.91%
same,Terminal Body Weight (mean),[6],359.05 g
same,NOAEL at 28 days,"both sexes, Sprague-Dawley, rat, in vivo, po",30 mg/kg/day
same,Increase in platelet counts,"female rats, 30 mg/kg/day",3.8%
same,Mean Bodyweight,"female rats, 30 mg/kg/day, Day 7",220.64 g
same,Food Mean Consumption,[7],14.89 g/animal/day
same,Mean Bodyweight Gain,[7],13.06 g
same,Mean Bodyweight,"female rats, 30 mg/kg/day, Day 14",233.70 g
same,Food Mean Consumption,[8],15.47 g/animal/day
same,Mean Bodyweight Gain,[8],9.45 g
same,Mean Bodyweight,"female rats, 30 mg/kg/day, Day 21",243.15 g
same,Food Mean Consumption,[9],15.12 g/animal/day
same,Mean Bodyweight Gain,[9],5.08 g
same,Mean Bodyweight,"female rats, 30 mg/kg/day, Day 28",248.23 g
same,Mean Bodyweight,"female rats, 30 mg/kg/day, Day −1 (pre-dose)",203.02 g
same,Food Mean Consumption,[10],15.49 g/animal/day
same,Mean Bodyweight Gain,[10],17.62 g
same,Mean Bodyweight Gain,"female rats, 30 mg/kg/day, Day −1 → 28",45.21 g
same,Mean Bodyweight,"female rats, 30 mg/kg/day, Day −3 (pre-dose)",200.70 g
same,Mean Bodyweight,"female rats, 100 mg/kg/day, Day 7",215.78 g
same,Food Mean Consumption,[11],13.85 d^4 g/animal/day
same,Mean Bodyweight Gain,[11],9.99 d^3 g
same,Mean Bodyweight,"female rats, 100 mg/kg/day, Day 14",225.77 d^2 g
same,Food Mean Consumption,[12],14.70 g/animal/day
same,Mean Bodyweight Gain,[12],7.02 g
same,Mean Bodyweight,"female rats, 100 mg/kg/day, Day 21",232.79 d^2 g
same,Food Mean Consumption,[13],13.98 g/animal/day
same,Mean Bodyweight Gain,[13],1.60 g
same,Decrease of group mean body weight compared to Group 1 controls,[14],6.9%
same,Mean Bodyweight,[14],234.39 g
same,Mean Bodyweight,"female rats, 100 mg/kg/day, Day −1 (pre-dose)",206.05 g
same,Food Mean Consumption,[15],14.33 dd^3 g/animal/day
same,Mean Bodyweight Gain,[15],9.73 d^3 g
same,Mean Bodyweight Gain,"female rats, 100 mg/kg/day, Day −1 → 28",28.34 dd^4 g
same,Mean Bodyweight,"female rats, 100 mg/kg/day, Day −3 (pre-dose)",201.20 g
same,Decrease of group mean food consumption compared to Group 1 controls,"female rats, 100 mg/kg/day",8.6%
same,Food Mean Consumption,"female rats, 300 mg/kg/day for 28 days, Day 28 → 35 (recovery)",22.30 d^4 g/animal/day
same,Mean Bodyweight Gain,"female rats, 300 mg/kg/day for 28 days, Day 28 → 42 (recovery)",32.82 g
same,Mean Bodyweight,"female rats, 300 mg/kg/day for 28 days, Day 35 (recovery)",249.62 g
same,Food Mean Consumption,"female rats, 300 mg/kg/day for 28 days, Day 35 → 42 (recovery)",20.22 g/animal/day
same,Mean Bodyweight,"female rats, 300 mg/kg/day for 28 days, Day 42 (recovery)",258.24 g
same,Mean Bodyweight,"female rats, 300 mg/kg/day, Day 7",214.74 g
same,Food Mean Consumption,[16],13.81 dd^3 g/animal/day
same,Mean Bodyweight Gain,[16],8.25 dd^4 g
same,Mean Bodyweight,"female rats, 300 mg/kg/day, Day 14",222.99 dd^3 g
same,Food Mean Consumption,[17],14.73 g/animal/day
same,Mean Bodyweight Gain,[17],5.03 dd^4 g
same,Mean Bodyweight,"female rats, 300 mg/kg/day, Day 21",228.03 dd^3 g
same,Food Mean Consumption,[18],12.91 d^4 g/animal/day
same,Mean Bodyweight Gain,[18],−7.49 d^3 g
same,Decrease of group mean body weight compared to Group 1 controls,[19],12.4%
same,Mean Bodyweight,[19],220.53 dd^3 g
same,Mean Bodyweight,"female rats, 300 mg/kg/day, Day −1 (pre-dose)",207.85 g
same,Food Mean Consumption,[20],13.75 dd^3 g/animal/day
same,Mean Bodyweight Gain,[20],6.89 dd^4 g
same,Mean Bodyweight Gain,"female rats, 300 mg/kg/day, Day −1 → 28",12.68 dd^4 g
same,Mean Bodyweight,"female rats, 300 mg/kg/day, Day −3 (pre-dose)",200.70 g
same,Decrease of group mean food consumption compared to Group 1 controls,"female rats, 300 mg/kg/day",15.6%
same,Group mean weight gain from Day −1 to 28,"female rats, Group 2 (30 mg/kg/day)",45 grams
same,Group mean weight gain from Day −1 to 28,"female rats, Group 3 (100 mg/kg/day)",28 grams
same,Group mean weight gain from Day −1 to 28,"female rats, Group 4 (300 mg/kg/day)",13 grams
same,Mean Bodyweight,"male rats, 30 mg/kg/day, Day 7",338.91 g
same,Mean Bodyweight Gain,[21],52.38 g
same,Mean Food Consumption,[21],24.85
same,Mean Bodyweight,"male rats, 30 mg/kg/day, Day 14",391.29 g
